Assay results taken from publication PMC10268255 (Proceedings of the National Academy of Sciences of the …, 2023).

Assays:
αVβ6 ectodomain = αVβ6 ectodomain (Homo sapiens, UniProt P06756+P18564); assay: Fluorescence polarization; assay type: binding; details: FP competition
αVβ8 ectodomain = αVβ8 ectodomain (Homo sapiens, UniProt P06756+P26012); assay: Fluorescence polarization; assay type: binding; details: ratio of FP KDs, αVβ8 vs αVβ6
integrin αVβ6 ectodomain [1] = target: integrin αVβ6 ectodomain (UniProt P06756); assay: fluorescence polarisation
integrin αVβ8 ectodomain = integrin αVβ8 ectodomain (UniProt P06756 31-992; P26012 43-684); assay: fluorescence polarisation
integrin αVβ6 ectodomain [2] = target: integrin αVβ6 ectodomain (UniProt P06756 31-992; P18564 22-709); assay: fluorescence polarisation

Ac-GTSTYTSGDQKTIKSTRKKNSGK-NH2 [23-mer] was tested, and the “Fold higher affinity for αVβ6 than the TGF-β2 9-mer” value (αVβ6 ectodomain) was 20 fold and the “Fold lower affinity of αVβ8 compared to αVβ6” value (αVβ8 ectodomain) was 5,500 fold.

Ac-YTSGDQKTIKSTR-NH2 [13-mer] was tested, and the “Fold lower affinity of αVβ8 compared to αVβ6” value (αVβ8 ectodomain) was 8,100 fold.

“human proTGF-β2 C24S, N140R, D5G (shaved) (natural protein)” was tested, and the fold higher affinity than the TGF-β2 9-mer (integrin αVβ6 ectodomain [1]) was 170 fold.

In the case of Ac-YTSGDQKTIKSTR-NH2 [TGF-β2 13-mer peptide Y259TSGDQKTIKSTR271], the Kd (integrin αVβ8 ectodomain) is reported as 11.4 mM.

Ac-YTSGDQATIKSTR-NH2 (peptide, UniProt P61812 259-271, looked up) [TGF-β2 13-mer peptide K265A] was tested, and the “fold increase in affinity over the wild-type 13-mer” value (integrin αVβ6 ectodomain [2]) was 6.3 fold.
